Numbered stars: 1 amine (or outer) side, 2 acyl side, 3 side chain; on linkers, the order of the positions; unused ones are H or OH. Bridge positions count the residues as written; N and C are the ends. Square brackets hold non-standard residues; d marks the D form. Peptide text beside a SMILES is read from it. * marks the point of attachment. hPhe(3,5-F2-4-CF3) = N[C@@H](CCc1cc(F)c(C(F)(F)F)c(F)c1)C(=O)O; hPhe(3-Cl-4-CF3) = N[C@@H](CCc1ccc(C(F)(F)F)c(Cl)c1)C(=O)O; hPhe(3-F,4-CF3) = N[C@@H](CCc1ccc(C(F)(F)F)c(F)c1)C(=O)O; NMePhe(4-CF3) = CN[C@@H](Cc1ccc(C(F)(F)F)cc1)C(=O)O; hPhe(4-CF3) = N[C@@H](CCc1ccc(C(F)(F)F)cc1)C(=O)O; 3Oxa8azabicyclo(3.2.1)octane = C1CC2COCC1N2*; NMePhe(4-Cl) = CN[C@@H](Cc1ccc(Cl)cc1)C(=O)O; NMePhe(2-Cl) = CN[C@@H](Cc1ccccc1Cl)C(=O)O; hPhe(3-Cl) = N[C@@H](CCc1cccc(Cl)c1)C(=O)O; hPhe(4-Cl) = N[C@@H](CCc1ccc(Cl)cc1)C(=O)O; NMedβ3hAla = C[C@H](CC(=O)[*:2])N(C)[*:1]; NMeGly(cPent) = CN[C@H](C(=O)O)C1CCCC1; Phe(3-I) = N[C@@H](Cc1cccc(I)c1)C(=O)O; Phe(4-Me) = Cc1ccc(C[C@H](N)C(=O)O)cc1; Pro(4,4-F2) = O=C(O)[C@@H]1CC(F)(F)CN1; NMeCha = CN[C@@H](CC1CCCCC1)C(=O)O; hhPhe = N[C@@H](CCCc1ccccc1)C(=O)O; Hyp = O=C(O)[C@@H]1C[C@@H](O)CN1; NEtLeu = CCN[C@@H](CC(C)C)C(=O)O; NMeAhp(2) = CCCCC[C@H](NC)C(=O)O; NMeChg = CN[C@H](C(=O)O)C1CCCCC1; NMeF = CN[C@@H](Cc1ccccc1)C(=O)O; NMeI = CC[C@H](C)[C@H](NC)C(=O)O; NMeT = CN[C@H](C(=O)O)[C@@H](C)O; NMeD = CN[C@@H](CC(=O)O)C(=O)O; NMeL = CN[C@@H](CC(C)C)C(=O)O; Chg = N[C@H](C(=O)O)C1CCCCC1; NMeV = CN[C@H](C(=O)O)C(C)C; d(β3hA) = C[C@@H](N)CC(=O)O; NMeS = CN[C@@H](CO)C(=O)O; Pip = O=C(O)[C@@H]1CCCCN1; NMeA = CN[C@@H](C)C(=O)O; Piperidide = C1CCN(*)CC1; Pyrrolidide = C1CCN(*)C1; dNMeA = CN[C@H](C)C(=O)O; Ac5c = NC1(C(=O)O)CCCC1; Aze = O=C(O)[C@@H]1CCN1; NBuGly = CCCCNCC(=O)O; Aib = CC(C)(N)C(=O)O; Sar = CNCC(=O)O; Propyl = CCC*
target: protein-protein interaction between Kras and SOS1 (biotin-tagged human Kras loaded with GDP, His-tagged human SOS1) (Homo sapiens (Human), UniProt P01116, G12D); experiment: Protein-protein interaction inhibition between Kras and SOS1 (KrasG12D-SOS PPI) using AlphaScreen; type: biochemical; conditions: AlphaScreen; biotin-tagged human Kras loaded with GDP, His-tagged human SOS1; read-out: KRAS G12D-SOS PPI IC50;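 also: kras produced in E. coli, Ni-coupled donor beads and streptavidin acceptor beads, excitation 680 nm with emission detected at 520–620 nm via singlet oxygen transfer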

Row | SMILES | IC50 [nM]
1 | CC[C@H](C)[C@@H]1NC(=O)[C@H](CC(C)C)N(C)C(=O)C[C@@H](C(=O)N2CCCCC2)N(C)C(=O)[C@H](C(C)C)N(C)C(=O)C2(CCCC2)NC(=O)[C@@H]2CCCN2C(=O)[C@H](CCc2ccc(C(F)(F)F)c(F)c2)NC(=O)CN(C)C(=O)[C@H](CC2CCCCC2)N(C)C(=O)[C@@H]2CCN2C(=O)CN(C)C1=O [Compound 599] ([NMeL]I[Sar][Aze][NMeCha][Sar][hPhe(3-F,4-CF3)]P[Ac5c][NMeV][NMeD]-Piperidide; lactam N-11) | 12
2 | CC[C@H](C)[C@@H]1NC(=O)[C@H](C)N(C)C(=O)C[C@@H](C)NC(=O)[C@H](C(C)C)N(C)C(=O)C2(CCCC2)NC(=O)[C@@H]2CCCN2C(=O)[C@H](CCc2ccc(C(F)(F)F)c(Cl)c2)NC(=O)[C@@H](C)N(C)C(=O)[C@H](CC2CCCCC2)N(C)C(=O)[C@@H]2CCN2C(=O)CN(C)C1=O [Compound 601] (cyclo([Ac5c][NMeV][d(β3hA)][NMeA]I[Sar][Aze][NMeCha][dNMeA][hPhe(3-Cl-4-CF3)]P)) | 87
3 | CCCCN1CC(=O)N(C)[C@@H](Cc2ccc(Cl)cc2)C(=O)N(C)CC(=O)N[C@@H](CCc2ccc(C(F)(F)F)cc2)C(=O)N(C)[C@@H](CC(C)C)C(=O)NC(C)(C)C(=O)N(C)[C@@H](CC(C)C)C(=O)N[C@H](C)CC(=O)N(C)[C@@H](C)C(=O)N[C@@H]([C@@H](C)CC)C(=O)N(C)CC1=O [Compound 602] (cyclo([Aib][NMeL][d(β3hA)][NMeA]I[Sar][NBuGly][NMePhe(4-Cl)][Sar][hPhe(4-CF3)][NMeL])) | 280
4 | CC[C@H](C)[C@@H]1NC(=O)[C@H](CC(C)C)N(C)C(=O)C[C@@H](C)N(C)C(=O)[C@H](C2CCCCC2)N(C)C(=O)C2(CCCC2)NC(=O)[C@@H]2CC(F)(F)CN2C(=O)[C@H](CCc2cc(F)c(C(F)(F)F)c(F)c2)NC(=O)CN(C)C(=O)[C@H](Cc2ccc(C(F)(F)F)cc2)N(C)C(=O)[C@@H]2CCN2C(=O)[C@H](C)N(C)C1=O [Compound 606] (cyclo([Ac5c][NMeChg][NMedβ3hAla][NMeL]I[NMeA][Aze][NMePhe(4-CF3)][Sar][hPhe(3,5-F2-4-CF3)][Pro(4,4-F2)])) | 8.3
5 | CC[C@H](C)[C@@H]1NC(=O)[C@H](C)N(C)C(=O)C[C@@H](C(=O)N2CCCC2)N(C)C(=O)[C@H](C(C)C)N(C)C(=O)C2(CCCC2)NC(=O)[C@H](Cc2ccccc2Cl)N(C)C(=O)[C@H](CCc2ccc(Cl)cc2)NC(=O)CN(C)C(=O)[C@H](CC2CCCCC2)N(C)C(=O)CN(C)C(=O)CN(C)C1=O [Compound 607] ([NMeA]I[Sar][Sar][NMeCha][Sar][hPhe(4-Cl)][NMePhe(2-Cl)][Ac5c][NMeV][NMeD]-Pyrrolidide; lactam N-11) | 220
6 | CC[C@H](C)[C@@H]1NC(=O)[C@H](C(C)C)N(C)C(=O)C[C@@H](C(=O)N2CCCCC2)NC(=O)[C@H](CC(C)C)N(C)C(=O)C2(CCCC2)NC(=O)[C@H](CC(C)C)N(C)C(=O)[C@H](CCc2ccc(C(F)(F)F)cc2)NC(=O)CN(C)C(=O)[C@H](Cc2ccc(Cl)cc2)N(C)C(=O)CN(C)C(=O)CN(C)C1=O [Compound 610] ([NMeV]I[Sar][Sar][NMePhe(4-Cl)][Sar][hPhe(4-CF3)][NMeL][Ac5c][NMeL]D-Piperidide; lactam N-11) | 150
7 | CC[C@H](C)[C@@H]1NC(=O)[C@H](CC2CCCCC2)N(C)C(=O)C[C@@H](C)NC(=O)[C@H](CC(C)C)N(C)C(=O)C(C)(C)NC(=O)[C@H](CC(C)C)N(C)C(=O)[C@H](CCc2ccc(C(F)(F)F)cc2)NC(=O)CN(C)C(=O)[C@H](Cc2ccc(Cl)cc2)N(C)C(=O)CN(C)C(=O)CN(C)C1=O [Compound 615] (cyclo([Aib][NMeL][d(β3hA)][NMeCha]I[Sar][Sar][NMePhe(4-Cl)][Sar][hPhe(4-CF3)][NMeL])) | 220
8 | CCCCC[C@H]1C(=O)N[C@@H]([C@@H](C)CC)C(=O)N(C)[C@@H](C)C(=O)N2CC[C@H]2C(=O)N(C)[C@@H](COCCC)C(=O)N(C)CC(=O)N[C@@H](CCc2ccc(C(F)(F)F)c(Cl)c2)C(=O)N2CCC[C@H]2C(=O)NC2(CCCC2)C(=O)N(C)[C@@H](C2CCCC2)C(=O)N(C)[C@H](C(=O)N2C3CCC2COC3)CC(=O)N1C [Compound 622] ([NMeAhp(2)]I[NMeA][Aze][NMeS](Propyl)[Sar][hPhe(3-Cl-4-CF3)]P[Ac5c][NMeGly(cPent)][NMeD]-{3Oxa8azabicyclo(3.2.1)octane}; lactam N-11) | 1.7
9 | CC[C@H](C)[C@@H]1NC(=O)[C@H](C)N(C)C(=O)C[C@@H](C(=O)N2CCCCC2)N(C)C(=O)[C@H](C(C)C)N(C)C(=O)C2(CCCC2)NC(=O)[C@@H]2CCCN2C(=O)[C@H](CCc2cccc(Cl)c2)NC(=O)CN(C)C(=O)[C@H](CC2CCCCC2)N(C)C(=O)[C@@H]2CCN2C(=O)[C@H](C)N(C)C1=O [Compound 625] ([NMeA]I[NMeA][Aze][NMeCha][Sar][hPhe(3-Cl)]P[Ac5c][NMeV][NMeD]-Piperidide; lactam N-11) | 70
10 | CC[C@H](C)[C@@H]1NC(=O)[C@@H]2CCCCN2C(=O)C[C@@H](C)NC(=O)[C@H](CC(C)C)N(C)C(=O)[C@H](Cc2ccccc2)N(C)C(=O)[C@@H]2CCCN2C(=O)[C@H](CCc2ccc(C(F)(F)F)cc2)NC(=O)CN(C)C(=O)[C@H](Cc2ccc(Cl)cc2)N(C)C(=O)CN(C)C(=O)CN(C)C1=O [Compound 632] (cyclo(I[Sar][Sar][NMePhe(4-Cl)][Sar][hPhe(4-CF3)]P[NMeF][NMeL][d(β3hA)][Pip])) | 73
11 | CCO[C@@H]1C[C@H]2C(=O)N(C)[C@@H](Cc3ccccc3)C(=O)N(C)[C@@H](CC(C)C)C(=O)N[C@H](C(=O)N3CCCC3)CC(=O)N(C)[C@@H](C)C(=O)N[C@@H]([C@@H](C)CC)C(=O)N(C)CC(=O)N(C)CC(=O)N(C)[C@@H](Cc3ccc(Cl)cc3)C(=O)N(C)CC(=O)N[C@@H](Cc3cccc(I)c3)C(=O)N2C1 [Compound 634] ([NMeA]I[Sar][Sar][NMePhe(4-Cl)][Sar][Phe(3-I)][Hyp](Et)[NMeF][NMeL]D-Pyrrolidide; lactam N-11) | 260
12 | CC[C@H](C)[C@@H]1NC(=O)[C@H](CC(C)C)N(C)C(=O)C[C@@H](C(=O)N2CCCCC2)N(C)C(=O)[C@H]([C@@H](C)OC)N(C)C(=O)C2(CCCC2)NC(=O)[C@@H]2CCCN2C(=O)[C@H](CCc2ccc(C(F)(F)F)c(Cl)c2)NC(=O)CN(C)C(=O)[C@H](CC2CCCCC2)N(C)C(=O)[C@@H]2CCN2C(=O)[C@H](C)N(C)C1=O [Compound 639] ([NMeL]I[NMeA][Aze][NMeCha][Sar][hPhe(3-Cl-4-CF3)]P[Ac5c][NMeT](Me)[NMeD]-Piperidide; lactam N-11) | 14
13 | CC(C)C[C@H]1C(=O)N[C@@H](C2CCCCC2)C(=O)N(C)[C@@H](C)C(=O)N2CC[C@H]2C(=O)N(C)[C@@H](CC2CCCCC2)C(=O)N(C)CC(=O)N[C@@H](CCc2ccc(C(F)(F)F)c(Cl)c2)C(=O)N2CCC[C@H]2C(=O)NC2(CCCC2)C(=O)N(C)[C@@H](C(C)C)C(=O)N(C)[C@H](C(=O)N2CCCCC2)CC(=O)N1C [Compound 642] ([NMeL][Chg][NMeA][Aze][NMeCha][Sar][hPhe(3-Cl-4-CF3)]P[Ac5c][NMeV][NMeD]-Piperidide; lactam N-11) | 54
14 | CCO[C@@H]1C[C@H]2C(=O)NC3(CCCC3)C(=O)N(C)[C@@H](C3CCCCC3)C(=O)N(C)[C@H](C)CC(=O)N(C)[C@@H](CC(C)C)C(=O)N[C@@H]([C@@H](C)CC)C(=O)N(C)[C@@H](C)C(=O)N3CC[C@H]3C(=O)N(C)[C@@H](Cc3ccc(C(F)(F)F)cc3)C(=O)N(C)CC(=O)N[C@@H](CCc3ccc(C(F)(F)F)c(Cl)c3)C(=O)N2C1 [Compound 652] (cyclo([Ac5c][NMeChg][NMedβ3hAla][NMeL]I[NMeA][Aze][NMePhe(4-CF3)][Sar][hPhe(3-Cl-4-CF3)][Hyp](Et))) | 4.3
15 | CC[C@H](C)[C@@H]1NC(=O)[C@H](C)N(C)C(=O)C[C@@H](C(=O)N2CCCCC2)N(C)C(=O)[C@H](C(C)C)N(C)C(=O)C2(CCCC2)NC(=O)[C@@H]2CCCN2C(=O)[C@H](CCCc2ccccc2)NC(=O)CN(C)C(=O)[C@H](CC2CCCCC2)N(C)C(=O)[C@@H]2CCN2C(=O)[C@H](C)N(C)C1=O [Compound 659] ([NMeA]I[NMeA][Aze][NMeCha][Sar][hhPhe]P[Ac5c][NMeV][NMeD]-Piperidide; lactam N-11) | 130
16 | CC[C@H](C)[C@@H]1NC(=O)[C@H](CC(C)C)N(C)C(=O)C[C@@H](C(=O)N(C)C)N(C)C(=O)[C@H]([C@@H](C)CC)N(C)C(=O)[C@H](C(C)C)NC(=O)[C@@H]2CCCN2C(=O)[C@H](CCc2ccc(C(F)(F)F)c(Cl)c2)NC(=O)CN(C)C(=O)[C@H](Cc2ccc(C)cc2)NC(=O)[C@@H]2CCN2C(=O)[C@H](C)N(C)C1=O [Compound 660] ([NMeL]I[NMeA][Aze][Phe(4-Me)][Sar][hPhe(3-Cl-4-CF3)]PV[NMeI][NMeD]-NMe2; lactam N-11) | 210
17 | CC[C@H](C)[C@@H]1NC(=O)[C@H](CC(C)C)N(C)C(=O)C[C@@H](C)NC(=O)[C@H](C(C)C)N(C)C(=O)C2(CCCC2)NC(=O)[C@@H]2CCCN2C(=O)[C@H](CCc2ccc(C(F)(F)F)c(Cl)c2)NC(=O)CN(C)C(=O)[C@H](CC2CCCCC2)N(C)C(=O)[C@@H]2CCN2C(=O)CN(C)C1=O [Compound 663] (cyclo([Ac5c][NMeV][d(β3hA)][NMeL]I[Sar][Aze][NMeCha][Sar][hPhe(3-Cl-4-CF3)]P)) | 16
18 | CC[C@H](C)[C@@H]1NC(=O)[C@H](CC(C)C)N(CC)C(=O)C[C@@H](C(=O)N2CCCCC2)N(C)C(=O)[C@H](C(C)C)N(C)C(=O)C2(CCCC2)NC(=O)[C@@H]2CCCN2C(=O)[C@H](CCc2ccc(C(F)(F)F)c(Cl)c2)NC(=O)CN(C)C(=O)[C@H](CC2CCCCC2)N(C)C(=O)[C@@H]2CCN2C(=O)[C@H](C)N(C)C1=O [Compound 667] ([NEtLeu]I[NMeA][Aze][NMeCha][Sar][hPhe(3-Cl-4-CF3)]P[Ac5c][NMeV][NMeD]-Piperidide; lactam N-11) | 5.1
